SMILES strings stand for the structures. pEC50, pIC50: −log10 of the molar value.

The target in assay [1] is T1, EGFR-TK (Homo sapiens, UniProt P00533).
T1 construct: EGFR-TK: intracellular epidermal growth factor receptor phosphorylase
As to the kind of experiment: Inhibition Test on EGFR-TK (ELISA, PGT substrate). The assay is classed as biochemical. Conditions: 20 min at room temperature, read-out: Inhibition Activity (EC50) on EGFR-TK phosphorylation. As to the method:
Inhibition Test on EGFR-TK
1. 2 mg/ml of PGT was diluted with PBS to 0.2 mg/ml. The resulting solution was added into elisa plate by 50 μl per well. The plate was placed in a refrigerator at 4° C. and coated overnight.
2. The coating solution was discarded to stop coating. The plate was washed three times with PBS, and then beaten to dryness.
3. The elisa plate was placed in a refrigerator at 4° C., drained out and stood for 2h.
4. The mother liquid of aqueous solution of each compound was diluted with double distilled water to four folds, i.e. a desirable concentration. Then, the compound was diluted and added in the corresponding elisa well by 25 μl/well.
5. […] of ATP solution was diluted with double distilled water to 50 folds and then sufficiently mixed. The resulting solution was separately added in each elisa well by 25 μl per well (except for the negative control).
6. EGFR kinase was diluted with 2×TKB to 800 folds. The solution was added in elisa well with 50 μl per well. Then, the enzyme reaction began. The elisa plate was immediately placed on a micro-oscillator and shaked to react for 20 min at the room temperature.
7. 2% of SDS was added in the elisa well to stop the reaction by adding 100 μl of SDS into each well. The solution was sufficiently mixed on the micro-oscillator to sufficiently mix for about 5 min.
8. The reaction solution was sucked out. The plate was washed four times with PBST. After the plate was beaten to dryness, 0.25 μg/ml of mice anti-phosphorylation tyrosine-HRP antibody which was diluted with blocking solution (3% solution of BSA in PBST) was added in the plate by 100 μl per well. The mixture was reacted for 30 min at the room temperature.
9. The antibody reaction solution was sucked out. The plate was washed four times with PBST. After the plate was beated to dryness, TMB peroxidase substrate was added to the plate by 100 μl/well. The mixture reacted in the dark for 15 min at the room temperature.
10. 100 μl of 2N H2SO4 was added in the plate to stop the chromogenic reaction. After the bubbles were cleansed, OD values were determined in ELIASA at 450 nm.
11. Formula for calculating inhibition percentage: […]
In general terms: In an ELISA, binding on a coated surface is turned into a signal by an enzyme label.

For assay [2], the system named is NCI-H358 cells. Nature of the assay: NCI-H358 Cell Growth Inhibition Test (MTT Assay). The assay is classed as cell-based. The settings on record: Homo sapiens, 72 h incubation. As to the method:
NCI-H358 Cell Growth Inhibition Test (MTT Assay)
Cell strains: NCI-H358 (human non-small cell lung cancer cell strains);
1. A plate (10 cm) of cells in logarithmic growth phase normally cultured was collected;
2. The culture solution was sucked out. The plate was washed with 5 ml of PBS 1-2 times;
3. PBS was sucked out. 1.5 ml of 0.25% pancreatin was added to infiltrate the cells for 1 min;
4. The culture plate was placed in an incubator. Digestion was carried out for about 5 min at 37° C.;
5. 3 ml of complete culture solution was added to the culture plate to stop the digestion. Tthe cells were carefully scoured with micropipette (1 ml) to give a uniform cell suspension. The suspension was implanted into a 96-well cell culture plate by 10000 cells/100 […] per well. The culture plate was incubated overnight under 5% CO2 at 37° C. In day 2, 100 μA of culture solution comprising a compound was added in each well, and further incubated for 72 h under 5% CO2 at 37° C.
6. The culture solution was sucked out;
7. 100 μA of serum-free culture solution containing 0.5 mg/ml MTT was added in each well, and incubated for 3 h;
8. The culture solution was carefully sucked out;
9. 100 μA of DMSO was added in each well and vibrated to dissolve;
10. OD values were determined at 490 nM.
1. Calculation of Relative Inhibition Ratio The inhibition ratio of a compound on cell growth=(PC−n)/(PC−NC)×100%
IC50: Concentration of a compound where inhibition ratio was 50%. IC50 values were fitted with Origin7.5.

Assay [3] deals with BxPc-3 cells. As to the kind of experiment: BxPc-3 Cell Growth Inhibition Test (MTT Assay). Type of assay: cell-based. The settings on record: Homo sapiens, 72 h incubation. As to the method: BxPc-3 Cell Growth Inhibition Test (MTT Assay) Cell strains: BxPC-3 (human pancreatic cancer cell strains); Culture medium: 90% RPMI-1640+10% FBS; 1. A plate (10 cm) of cells in logarithmic growth phase normally cultured was collected; 2. The culture solution was sucked out. […] The plate was washed with 5 ml of PBS 1-2 times; 3. PBS was sucked out. 1.5 ml of 0.25% pancreatin was added to infiltrate the cells for 1 min; 4. The pancreatin was sucked out. The culture plate was placed in an incubator. Digestion was carried out for about 5 min at 37° C.; 5. 4.5 ml of complete culture solution was added to the culture plate to stop the digestion. The cells were carefully scoured with micropipette (1 ml) to give a uniform cell suspension. The suspension was implanted into a 96-well cell culture plate by 5000 cells/100 μl per well. The culture plate was incubated overnight under 5% CO2 at 37° C. In day 2, 100 μl of culture solution comprising a compound was added in each well, and further incubated for 72 h under 5% CO2 at 37° C. 6. The culture solution was sucked out; 7. 100 μl of serum-free culture solution containing 0.5 mg/ml MTT was added in each well, and incubated for 3 h; 8. The culture solution was carefully sucked out; 9. 100 μl of DMSO was added in each well and vibrated to dissolve; 10. OD values were determined at […]. 1. Calculation of Relative Inhibition Ratio The inhibition ratio of a compound on cell growth=(PC−n)/(PC−NC)×100% IC50: Concentration of a compound where inhibition ratio was 50%. IC50 values were fitted with Origin7.5.

T1 sequence (P00533 669-1210 limits assumed): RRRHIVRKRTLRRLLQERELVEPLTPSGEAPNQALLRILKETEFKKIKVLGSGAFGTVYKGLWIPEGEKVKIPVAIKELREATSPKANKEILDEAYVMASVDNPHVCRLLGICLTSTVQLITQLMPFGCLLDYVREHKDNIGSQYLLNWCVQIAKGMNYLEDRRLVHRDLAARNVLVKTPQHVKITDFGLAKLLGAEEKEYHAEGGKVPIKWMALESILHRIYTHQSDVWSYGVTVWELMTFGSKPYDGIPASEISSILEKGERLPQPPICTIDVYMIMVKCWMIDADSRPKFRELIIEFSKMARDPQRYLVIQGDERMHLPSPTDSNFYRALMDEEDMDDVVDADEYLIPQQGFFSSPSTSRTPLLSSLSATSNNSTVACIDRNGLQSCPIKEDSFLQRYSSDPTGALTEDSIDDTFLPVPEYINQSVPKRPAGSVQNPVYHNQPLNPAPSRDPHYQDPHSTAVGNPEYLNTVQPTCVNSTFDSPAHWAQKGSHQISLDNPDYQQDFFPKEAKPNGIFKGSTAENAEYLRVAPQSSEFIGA

As usually defined, the pEC50 is −log10 of the EC50, conventionally taken in molar units. In the case of `CN(C)C/C=C/C(=O)Nc1cc2c(Nc3ccc(F)c(Cl)c3)c(C#N)cnc2cc1OC1CCOC1` (stereo not shown) [Example 4, (E)-N-(4-(3-CHLORO-4-FLUOROPHENYLAMINO)-3-CYANO-7-(TETRAHYDROFURAN-3-YL-OXY)QUINOLIN-6-YL)-4-(DIMETHYLAMINO)-BUT-2-ENAMIDE], the pEC50 in assay [1] is 7.38. On to `C#Cc1cccc(Nc2c(C#N)cnc3cc(OC4CCOC4)c(NC(=O)/C=C/CN(C)C)cc23)c1` (stereo not shown) [Example 5, (E)-N-(3-CYANO-4-(3-ETHYNYLPHENYLAMINO)-7-(TETRAHYDROFURAN-3-YL-OXY)QUINOLIN-6-YL)-4-(DIMETHYLAMINO)-BUT-2-ENAMIDE], for which the pEC50 in assay [1] is 7.36. The term pIC50 denotes the negative decadic logarithm of the IC50, by convention in mol/L. Read a high pIC50 as a small IC50. With `CC(C)(C)NC/C=C/C(=O)Nc1cc2c(Nc3ccc(OCc4ccccn4)c(Cl)c3)c(C#N)cnc2cc1O[C@H]1CCOC1` [Example 153, (S,E)-N-(4-(3-CHLORO-4-(PYRIDIN-2-YL-METHOXY)PHENYLAMINO)-3-CYANO-7-(TETRAHYDROFURAN-3-YL-OXY)QUINOLIN-6-YL)-4-(TERT-BUTYLAMINO)-BUT-2-ENAMIDE], in assay [2], the pIC50 is 7.11.

As for `CN(C)C/C=C/C(=O)Nc1cc2c(Nc3ccc(OCc4ccccn4)c(Cl)c3)c(C#N)cnc2cc1O[C@H]1CCOC1` [Example 138, (S,E)-N-(4-(3-CHLORO-4-(PYRIDIN-2-YL-METHOXY)PHENYLAMINO)-3-CYANO-7-(TETRAHYDROFURAN-3-YL-OXY)QUINOLIN-6-YL)-4-(DIMETHYLAMINO)-BUT-2-ENAMIDE], the pIC50 in assay [3] was 6.47; in assay [2] it was 7.27. The pEC50 in assay [1] was 6.96. `CN(C)C/C=C/C(=O)Nc1cc2c(Nc3ccc(F)c(Cl)c3)c(C#N)cnc2cc1O[C@H]1CCOC1` [Example 142, (S,E)-N-(4-(3-CHLORO-4-FLUOROPHENYLAMINO)-3-CYANO-7-(TETRAHYDROFURAN-3-YL-OXY)QUINOLIN-6-YL)-4-(DIMETHYLAMINO)-BUT-2-ENAMIDE] gave a pIC50 in assay [3] of 6.38. `CN(C)C/C=C/C(=O)Nc1cc2c(Nc3ccc(OCc4cccc(F)c4)c(Cl)c3)c(C#N)cnc2cc1OC1CCOC1` (stereo not shown) [Example 9, (E)-N-(4-(4-(3-FLUOROBENZYLOXY)-3-CHLOROPHENYLAMINO)-3-CYANO-7-(TETRAHYDROFURAN-3-YL-OXY)QUINOLIN-6-YL)-4-(DIMETHYLAMINO)-BUT-2-ENAMIDE]: the pEC50 in assay [1] was 6.87. In the case of `CN(C)C/C=C/C(=O)Nc1cc2c(Nc3ccc(OCc4ccccn4)c(Cl)c3)c(C#N)cnc2cc1O[C@@H]1CCOC1` [Example 139, (R,E)-N-(4-(3-CHLORO-4-(PYRIDIN-2-YL-METHOXY)PHENYLAMINO)-3-CYANO-7-(TETRAHYDROFURAN-3-YL-OXY)QUINOLIN-6-YL)-4-(DIMETHYLAMINO)-BUT-2-ENAMIDE], in assay [3], the pIC50 was 6.73. For `CN(C)C/C=C/C(=O)Nc1cc2c(Nc3ccc(OCc4ccccn4)c(Cl)c3)c(C#N)cnc2cc1OC1CCOC1` (stereo not shown) [Example 21, (E)-N-(4-(3-CHLORO-4-(PYRIDIN-2-YL-METHOXY)PHENYLAMINO)-3-CYANO-7-(TETRAHYDROFURAN-3-YL-OXY)QUINOLIN-6-YL)-4-(DIMETHYLAMINO)-BUT-2-ENAMIDE], in assay [1], the pEC50 was 6.81.

The values above are taken from US9187458B2, “Cyanoquinoline derivatives” (Tianjin Hemay Bio-Tech Co., LTD., priority 2010, dated 2015).
